These results are taken from patent publication US10294214B2, “Positive allosteric modulators of human melanocortin-4 receptor” (Vanderbilt University, priority 2016, dated 2019).

SMILES strings stand for the structures.

In this experiment the target is hMC4R (Homo sapiens (Human), UniProt P32245). Nature of the experiment: LANCE cAMP assay, hMC4R PAM. The experiment is classed as cell-based. The following applies: HEK293 cells stably expressing the hMC4R; α-MSH at an EC20 dose. How it is done: Analysis of pharmacological properties of compounds was performed using the LANCE cAMP kit (Perkin Elmer). HEK293 cells stably expressing the hMC4R were treated with PAM compounds at doses indicated, then incubated with an Alexa Fluor 647-labeled antibody in stimulation buffer according to manufacturer's instructions for 30 min at RT. Next, α-MSH was added (at an EC20 dose or at doses indicated for concentration-response curves), and plates were incubated for 15 minutes at RT, followed by the addition of 10 μL of detection mix. Plates were then incubated for 30 minutes at RT and read on a Viewlux (Perkin Elmer) using 618 and 671 nm emission filters. IBMX was not included in the assay.
hMC4R, sequence (P32245 whole entry): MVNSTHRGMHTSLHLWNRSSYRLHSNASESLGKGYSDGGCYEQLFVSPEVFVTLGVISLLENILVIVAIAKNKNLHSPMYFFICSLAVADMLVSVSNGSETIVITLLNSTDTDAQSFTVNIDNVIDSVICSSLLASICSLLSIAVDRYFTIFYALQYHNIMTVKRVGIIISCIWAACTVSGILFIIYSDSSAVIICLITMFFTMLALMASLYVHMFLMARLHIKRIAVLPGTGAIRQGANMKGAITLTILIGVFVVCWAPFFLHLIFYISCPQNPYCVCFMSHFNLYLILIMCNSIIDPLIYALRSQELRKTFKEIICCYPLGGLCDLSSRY
(In general: Time-resolved FRET reads energy transfer from a long-lived donor to a nearby acceptor.)
Regarding `O=C(CN1CCC(C2CCCCC2)CC1)Nc1c(C(=O)C2CC2)[nH]c2ccccc12` [Example 37], the “hMC4R PAM LANCE pEC50 Mean” value was 6.6.

For `CC1(C)CCCN(CC(=O)Nc2c(C(=O)C3CC3)[nH]c3ccc(Br)cc23)C1` [Example 7], the “hMC4R PAM LANCE pEC50 Mean” value worked out at 6.4.

For `CC(=O)c1[nH]c2ccc(Br)cc2c1NC(=O)CN1CCC(c2ccccc2)CC1` [Example 43], the “hMC4R PAM LANCE pEC50 Mean” value is reported as 6.4.

Consider `COC(=O)c1[nH]c2ccc(Br)cc2c1NC(=O)CN1CCC(c2ccccc2)CC1` [Example 39], for which the “hMC4R PAM LANCE pEC50 Mean” value is reported as 6.6.

`COC(=O)c1[nH]c2ccc(Cl)cc2c1NC(=O)CN1CCC(Cc2ccccc2)CC1` [Example 21]: the “hMC4R PAM LANCE pEC50 Mean” value amounted to 6.2.

With `COC(=O)c1[nH]c2ccc(N3CCOCC3)cc2c1NC(=O)CN1CCC(C2CCCCC2)CC1` [Example 61], the “hMC4R PAM LANCE pEC50 Mean” value worked out at 6.6.

Turning to `O=C(CN1CCC(C2CCCC2)CC1)Nc1c(C(=O)C2CC2)[nH]c2ccccc12` [Example 41], the “hMC4R PAM LANCE pEC50 Mean” value is 6.4.

Regarding `CC(=O)c1[nH]c2ccc(Br)cc2c1NC(=O)CN1CCCC(C)(C)C1` [Example 51], the “hMC4R PAM LANCE pEC50 Mean” value was found to be 6.

In the case of `COC(=O)c1[nH]c2ccccc2c1NC(=O)CN1CCN(c2cccc(C(F)(F)F)c2)CC1` [Example 12], the “hMC4R PAM LANCE pEC50 Mean” value is 6.3.

For `COC(=O)c1[nH]c2ccc(Br)cc2c1NC(=O)CN1CCCCC1` [Example 26], the “hMC4R PAM LANCE pEC50 Mean” value came to 6.

For the compound `CC(=O)c1[nH]c2ccccc2c1NC(=O)CN1CCC(c2ccccc2)CC1` [Example 19], the “hMC4R PAM LANCE pEC50 Mean” value amounted to 6.2.

Consider `CC(=O)c1[nH]c2ccccc2c1NC(=O)CN1CCC(OC2CCCCC2)CC1` [Example 77], for which the “hMC4R PAM LANCE pEC50 Mean” value stood at 5.8.

With `CC1(C)CCCN(CC(=O)Nc2c(C(=O)C3CC3)[nH]c3ccc(N4CCOCC4)cc23)C1` [Example 53], the “hMC4R PAM LANCE pEC50 Mean” value amounted to 5.7.

On to `COC(=O)c1[nH]c2ccc(Br)cc2c1NC(=O)CN1CCN(C2c3ccccc3-c3ccccc32)CC1` [Example 46], for which the “hMC4R PAM LANCE Asym Max” value is recorded as 48 and the “hMC4R PAM LANCE pEC50 Mean” value is recorded as 6.3.

`COC(=O)c1[nH]c2ccc(Br)cc2c1NC(=O)CN1CCSCC1` [Example 36]: the “hMC4R PAM LANCE pEC50 Mean” value is recorded as 5.8.

As to `CC1(C)CCCN(CC(=O)Nc2c(C(=O)C3CC3)[nH]c3ccncc23)C1` [Example 74], the “hMC4R PAM LANCE pEC50 Mean” value is listed as 6.2.

For `O=C(CN1CCC(c2ccccc2)CC1)Nc1c(C(=O)C2CC2)[nH]c2ccccc12` [Example 16], the “hMC4R PAM LANCE pEC50 Mean” value was found to be 6.2.

As for `COC(=O)c1[nH]c2ccc(Br)cc2c1NC(=O)CN1CCC(Cc2ccccc2)CC1` [Example 22], the “hMC4R PAM LANCE pEC50 Mean” value is recorded as 6.2.

In the case of `COC(=O)c1[nH]c2ccc(Br)cc2c1NC(=O)CN1CCN(c2ccccc2)CC1` [Example 17], the “hMC4R PAM LANCE pEC50 Mean” value turned out to be 6.2.

With `O=C(CN1CCN(Cc2ccccc2)CC1)Nc1c(C(=O)C2CC2)[nH]c2ccc(Br)cc12` [Example 14], the “hMC4R PAM LANCE pEC50 Mean” value stood at 6.2.

In the case of `COC(=O)c1[nH]c2ccc(Br)cc2c1NC(=O)CN1CCN(C(c2ccccc2)c2ccccc2)CC1` [Example 47], the “hMC4R PAM LANCE pEC50 Mean” value was 6.2.

As to `CC(=O)c1[nH]c2ccccc2c1NC(=O)CN1CCC(Oc2ccccc2)CC1` [Example 52], the “hMC4R PAM LANCE pEC50 Mean” value was 5.9.

Take `CS(=O)(=O)c1ccc2[nH]c(C(=O)C3CC3)c(NC(=O)CN3CCC(C4CCCCC4)CC3)c2c1` [Example 58]: the “hMC4R PAM LANCE pEC50 Mean” value was 7.1.

With `O=C(CN1CCC(C2CCCCC2)CC1)Nc1c(C(=O)C2CC2)[nH]c2ccc(N3CCOCC3)cc12` [Example 66], the “hMC4R PAM LANCE pEC50 Mean” value is listed as 6.6.

As for `CC(=O)c1[nH]c2ccccc2c1NC(=O)CN1CCC(C2CCCCC2)CC1` [Example 42], the “hMC4R PAM LANCE pEC50 Mean” value was determined as 6.5.

For `COC(=O)c1[nH]c2ccc(Br)cc2c1NC(=O)CN1CCN(Cc2ccccc2)CC1` [Example 35], the “hMC4R PAM LANCE pEC50 Mean” value came out at 5.8.

Take `COC(=O)c1[nH]c2ccc(Br)cc2c1NC(=O)CN1CCCC(C)(C)C1` [Example 79]: the “hMC4R PAM LANCE pEC50 Mean” value turned out to be 6.1.

Turning to `COC(=O)c1[nH]c2ccccc2c1NC(=O)CN1CCC(Cc2ccccc2)CC1` [Example 24], the “hMC4R PAM LANCE pEC50 Mean” value is 6.

Take `CC(=O)c1[nH]c2ccccc2c1NC(=O)CN1CCN(Cc2ccccc2)CC1` [Example 33]: the “hMC4R PAM LANCE pEC50 Mean” value is listed as 5.6.

Consider `CC1(C)CCCN(CC(=O)Nc2c(C(=O)C3CC3)[nH]c3ccc(S(C)(=O)=O)cc23)C1` [Example 48], for which the “hMC4R PAM LANCE pEC50 Mean” value turned out to be 6.3.

As to `CC(C)=C1CCN(CC(=O)Nc2c(C(=O)C3CC3)[nH]c3ccccc23)CC1` [Example 50], the “hMC4R PAM LANCE pEC50 Mean” value stood at 6.1.

With `O=C(CN1CCC(c2ccccc2)CC1)Nc1c(C(=O)C2CC2)[nH]c2ccc(Br)cc12` [Example 8], the “hMC4R PAM LANCE pEC50 Mean” value is reported as 6.5.

For the compound `CC(=O)c1[nH]c2ccncc2c1NC(=O)CN1CCC(C2CCCC2)CC1` [Example 64], the “hMC4R PAM LANCE pEC50 Mean” value is on record as 6.6.

With `COC(=O)c1[nH]c2ccc(N3CCOCC3C)cc2c1NC(=O)CN1CCC(C2CCCCC2)CC1` (stereo not drawn) [Example 60], the “hMC4R PAM LANCE pEC50 Mean” value was 6.7.

Consider `CC(=O)c1[nH]c2ccncc2c1NC(=O)CN1CCC(C(C)(C)C)CC1` [Example 72], for which the “hMC4R PAM LANCE pEC50 Mean” value is 6.3.

`CC(=O)c1[nH]c2ccccc2c1NC(=O)CN1CCC(Cc2ccccc2)CC1` [Example 18]: the “hMC4R PAM LANCE pEC50 Mean” value was determined as 6.1.

With `COC(=O)c1[nH]c2ccc(Cl)cc2c1NC(=O)CN1CCC(c2ccccc2)CC1` [Example 4], the “hMC4R PAM LANCE pEC50 Mean” value is given as 6.5.

As to `COC(=O)c1[nH]c2ccccc2c1NC(=O)CN1CCC(Oc2ccccc2)CC1` [Example 25], the “hMC4R PAM LANCE pEC50 Mean” value was 6.

Turning to `COC(=O)c1[nH]c2cc(Br)ccc2c1NC(=O)CN1CCN(c2ccc(F)cc2)CC1` [Example 6], the “hMC4R PAM LANCE pEC50 Mean” value was 6.4.

On to `O=C(CN1CCC(C2CCCC2)CC1)Nc1c(C(=O)C2CC2)[nH]c2ccc(Cl)cc12` [Example 63], for which the “hMC4R PAM LANCE pEC50 Mean” value stood at 6.7.

Turning to `CC(=O)c1[nH]c2ccc(Br)cc2c1NC(=O)CN1CCC(Cc2ccccc2)CC1` [Example 44], the “hMC4R PAM LANCE pEC50 Mean” value stood at 6.4.

As for `COC(=O)c1[nH]c2ccccc2c1NC(=O)CN1CCC(Oc2ccccn2)CC1` [Example 32], the “hMC4R PAM LANCE pEC50 Mean” value turned out to be 5.8.

For the compound `CC1COCCN1c1ccc2[nH]c(C(=O)C3CC3)c(NC(=O)CN3CCCC(C)(C)C3)c2c1` (stereo not drawn) [Example 76], the “hMC4R PAM LANCE pEC50 Mean” value was 5.7.

For the compound `COC(=O)c1[nH]c2ccc(Br)cc2c1NC(=O)CN1CCN(c2cccc(OC)c2)C(C)C1` (stereo not drawn) [Example 13], the “hMC4R PAM LANCE pEC50 Mean” value was found to be 6.3.

As for `CC(C(=O)Nc1c(C(=O)C2CC2)[nH]c2ccccc12)N1CCC(C2CCCC2)CC1` (stereo not drawn) [Example 71], the “hMC4R PAM LANCE pEC50 Mean” value is listed as 6.4.

As for `COC(=O)c1[nH]c2ccc(C)cc2c1NC(=O)CN1CCN(c2cccc(OC)c2)C(C)C1` (stereo not drawn) [Example 31], the “hMC4R PAM LANCE pEC50 Mean” value was 5.8.

Consider `COC(=O)c1[nH]c2ccc(Cl)cc2c1NC(=O)C(C)N1CCC(Cc2ccccc2)CC1` (stereo not drawn) [Example 78], for which the “hMC4R PAM LANCE pEC50 Mean” value turned out to be 6.

With `COC(=O)c1[nH]c2ccc(C)cc2c1NC(=O)CN1CCC(Cc2ccccc2)CC1` [Example 75], the “hMC4R PAM LANCE pEC50 Mean” value came out at 5.9.

Consider `COC(=O)c1[nH]c2ccccc2c1NC(=O)CN1CCC(N(C)c2ccccc2)CC1` [Example 45], for which the “hMC4R PAM LANCE pEC50 Mean” value was 6.3.

In the case of `COC(=O)c1[nH]c2ccc(Br)cc2c1NC(=O)CN1CCN(c2cccc(C)c2C)CC1` [Example 5], the “hMC4R PAM LANCE pEC50 Mean” value is 6.5.

On to `O=C(CN1CCC2(CCCCC2)CC1)Nc1c(C(=O)C2CC2)[nH]c2ccccc12` [Example 65], for which the “hMC4R PAM LANCE pEC50 Mean” value came out at 6.5.

As for `Cc1cccc(N2CCN(CC(=O)Nc3c(C(=O)C4CC4)[nH]c4ccc(Br)cc34)CC2)c1C` [Example 9], the “hMC4R PAM LANCE pEC50 Mean” value worked out at 6.4.

Consider `COC(=O)c1[nH]c2ccccc2c1NC(=O)CN1CCN(Cc2ccccc2)C(C)(C)C1` [Example 57], for which the “hMC4R PAM LANCE pEC50 Mean” value amounted to 5.6.

With `CC1(C)CCCN(CC(=O)Nc2c(C(=O)C3CC3)[nH]c3ccccc23)C1` [Example 23], the “hMC4R PAM LANCE pEC50 Mean” value was found to be 6.1.

Regarding `COC(=O)c1[nH]c2ccc(Br)cc2c1NC(=O)C(C)N1CCC(Cc2ccccc2)CC1` (stereo not drawn) [Example 20], the “hMC4R PAM LANCE pEC50 Mean” value is reported as 6.2.

On to `O=C(CN1CCC(C2CCCCC2)CC1)Nc1c(C(=O)C2CC2)[nH]c2ccc(Cl)cc12` [Example 38], for which the “hMC4R PAM LANCE pEC50 Mean” value is given as 6.6.

In the case of `O=C(CN1CCC(C2CCCC2)CC1)Nc1c(C(=O)C2CC2)[nH]c2ccncc12` [Example 59], the “hMC4R PAM LANCE pEC50 Mean” value turned out to be 6.7.

With `COC(=O)c1[nH]c2ccccc2c1NC(=O)CN1CCC(Nc2ccccc2)CC1` [Example 55], the “hMC4R PAM LANCE pEC50 Mean” value worked out at 5.8.

With `O=C(CN1CCC(C2CC2)CC1)Nc1c(C(=O)C2CC2)[nH]c2ccccc12` [Example 54], the “hMC4R PAM LANCE pEC50 Mean” value worked out at 6.

With `O=C(CN1CCC2(CCCC2)CC1)Nc1c(C(=O)C2CC2)[nH]c2ccncc12` [Example 68], the “hMC4R PAM LANCE pEC50 Mean” value is reported as 6.4.

Take `COC(=O)c1[nH]c2ccc(Cl)cc2c1NC(=O)CN1CCCC(C)(C)C1` [Example 80]: the “hMC4R PAM LANCE pEC50 Mean” value was 6.

As to `O=C(CN1CCN(c2ccccc2)CC1)Nc1c(C(=O)C2CC2)[nH]c2ccncc12` [Example 73], the “hMC4R PAM LANCE pEC50 Mean” value is on record as 6.2.

Take `COC(=O)c1[nH]c2ccc(C)cc2c1NC(=O)CN1CCN(c2cccc(C)c2C)CC1` [Example 27]: the “hMC4R PAM LANCE pEC50 Mean” value worked out at 5.9.

As to `O=C(CN1CCC(c2ccccc2)CC1)Nc1c(C(=O)C2CCC2)[nH]c2ccccc12` [Example 56], the “hMC4R PAM LANCE pEC50 Mean” value is given as 5.9.

`Cc1cccc(N2CCN(CC(=O)Nc3c(C(=O)C4CC4)[nH]c4ccccc34)CC2)c1C` [Example 10]: the “hMC4R PAM LANCE pEC50 Mean” value is 6.5.
